The values that follow come from patent publication EP1043986B1, “MIXTURE AND PHARMACEUTICAL COMPOSITION COMPRISING Z-4-HYDROXYTAMOXIFEN AND CYCLODEXTRIN” (priority 1997, dated 1999).

This data set is described as follows: 10-day stability test in water and in 96 % ethanol, room temperature, normal day light, capillary electrophoresis. Format: physicochemical. As to conditions: 10-days storage in 96 % ethanol. As to the method: A 10-day stability test in water and in 96 % ethanol at room temperature and exposure to normal day light, using 4-hydroxytamoxifen and the 4-hydrorytamoxifen/ γ-cyclodextrin complex prepared according to example 1 was performed. The change of E/Z isomer ratio was analyzed with capillary electrophoresis.

For the substance “1-(p-β-dimethylaminoethoxyphenyl)-1-(p-hydroxyphenyl)-2-phenylbut-1-en [4-Hydroxytamoxifen]”, the “Efficiency value (ratio of uncomplexed and complexed 4-hydroxytamoxifen re/z values)” value is given as 4,65. Besides, where the note is “room temperature, normal day light”, the Ratio re/z is recorded as 0,223.
